Experimental findings from US5432270A, “DNA encoding tracheal antimicrobial peptides” (priority 1993, dated 1995) are described below.

Common to all, as to test: Minimal inhibitory concentration in 0.25x TSB, microtiter plates
Holding throughout (assay type): cell-based

Test [1] relates to Escherichia coli strain D31. Conditions: E. coli. Here is the method: (§1) Antimicrobial activity of TAP (SEQ ID NO: 1) and
(§2) Magainin 2-NH2 (SEQ ID NO: 6). Minimal inhibitory
(§3) concentrations were determined by incubating approximately
(§4) 3.125 μg/ml of the appropriate peptide.
*strain D31 (Steiner, H. D., Hultmark, A., supra, (1981)

Test [2] deals with Staphylococcus aureus (ATCC 25923). Particulars: 2.5 × 10^4 microbe in 0.25× TSB, overnight 37° C. Here is the method: as §1, §2, §3, §4
Test [3] deals with Candida albicans (ATCC 14053). The procedure: as §1, §2, §3, §4
For test [4], the system named is Pseudomonas aeruginosa (ATCC 27853). Particulars: 2.5 × 10^4 microbe in 0.25× TSB, overnight 37° C. The procedure:
as §1, §2, §3, §4

For test [5], the system named is Klebsiella pneumonia (ATCC 13883). The procedure: as §1, §2, §3, §4

For “TAP: 38-residue cysteine-rich antimicrobial peptide purified from bovine tracheal mucosa, SEQ ID NO:1 (NPVSCVRNKGICVPIRCPGSMKQIGTCVGRAVKCCRKK)”, the “Antimicrobial activity in vitro (in words)” value in test [1] is “most active”; in test [3] (C. albicans), “significant antimicrobial activity”; in test [5] (K. pneumonia) it was “most active”. Besides, the Minimal inhibitory concentration in test [2] was in the range of 25 to 50 µg/mL; in test [3] (Candida albicans ATCC 14053, 2.5 × 10^4 microbe in 0.25× TSB, overnight 37° C.) it was 6.25 to 12.5 µg/mL; in test [4] it was 25 to 50 µg/mL; in test [5] (Klebsiella pneumonia ATCC 13883, 2.5 × 10^4 microbe in 0.25× TSB, overnight 37° C.), 12.5 to 25 µg/mL.
